Data taken from US20240123079A1 (Seagen Inc., priority 2021, published 2024).
pEC50: −log10 of the molar value. Several values for one entry are separate records, joined by “and”; a condition that tells them apart may be missing. Equal entries are not always repeated.

How the values were obtained:
[1] = system: THP1-Dual™ reporter cells; test: THP1-Dual cell reporter assay (IRF-Lucia luciferase reporter); format: cell-based, human; conditions: for pEC50: Homo sapiens, THP1-Dual, free compounds, 24 h, Lucia reporter signal, read-out: EC50; for potency relative to other free compound: free drug
Procedure, shortened: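 THP1-Dual monocytic cells (~100,000/well) were exposed to compound for 24 h (ADCs 48 h). Secreted IRF-driven Lucia luciferase in the supernatant was quantified by QUANTI-Luc luminescence.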

CT26 cancer cells = test: CT26 tumor model, in vivo anti-tumor activity; set-up: species or system mouse; conditions: CT26 tumor-bearing mice, q7dx3
Procedure: CT26 cancer cells (ATCC) were cultured in RPMI 1640 modified with 1 mM Sodium Pyruvate, 10 mM HEPES, 2.8 mL 45% Glucose (1.25 g) and supplemented with 10% fetal bovine serum and 1% Pen/Strep/Glutamine. CT26 cancer cells were implanted ([…] in 200 uL serum-free RPMI 1640) subcutaneously into Balb/c mice.

[2] = In vivo cytokine assay, plasma of CT26 tumor-bearing mice; set-up: species or system mouse; conditions: 1.86 mg/kg
Procedure: Cytokines were measured in mouse plasma harvested at 3, 6, 24, or 48 hours after treatment with compounds or ADCs using a Milliplex MAP mouse cytokine/chemokine magnetic bead panel assay kit (MCYTOMAG-70k custom 11-plex kit: MCP1, MIP1α, MIP1β, TNFα, IFNγ, IL-10, IL-12p70, IL-6, IL-1β, IP10, RANTES) and analyzed using a Luminex™ MAGPIX™ Instrument System. Values that were outside of the standard curve range (<3.2 or […]) were excluded from calculation of the mean values.

Row | Compound | pEC50 [1] | potency relative to other free compound [1] | tumor growth delay (CT26 cancer cells) | IL-6 in peripheral blood (plasma) ([2]; 3 h) | IP-10 in peripheral blood (plasma) ([2]; 3 h) | MCP-1 in peripheral blood (plasma) ([2]; 3 h) | MIP1b in peripheral blood (plasma) ([2]; 3 h) | MIP-1a in peripheral blood (plasma) ([2]; 3 h) | TNFa in peripheral blood (plasma) ([2]; 3 h) | IL-6 in peripheral blood (plasma) ([2]; 6 h) | IP-10 in peripheral blood (plasma) ([2]; 6 h) | MCP-1 in peripheral blood (plasma) ([2]; 6 h) | MIP-1a in peripheral blood (plasma) ([2]; 6 h) | TNFa in peripheral blood (plasma) ([2]; 6 h) | IL-6 in peripheral blood (plasma) ([2]; 24 h) | IL-10 in peripheral blood (plasma) ([2]; 24 h) | IP-10 in peripheral blood (plasma) ([2]; 24 h) | MCP-1 in peripheral blood (plasma) ([2]; 24 h) | IL-10 in peripheral blood (plasma) ([2]; 48 h) | IP-10 in peripheral blood (plasma) ([2]; 48 h)
1 | CCn1nc(C)cc1C(=O)Nc1nc2cc(C(N)=O)cc(O)c2n1C/C=C/Cn1c(NC(=O)c2cc(C)nn2CC)nc2cc(C(N)=O)cc(OC)c21 [Compound 1, (E)-1-(4-(5-carbamoyl-2-(1-ethyl-3-methyl-1H-pyrazole-5-carboxamido)-7-hydroxy-1H-benzo[d]imidazol-1-yl)but-2-en-1-yl)-2-(1-ethyl-3-methyl-1H-pyrazole-5-carboxamido)-7-methoxy-1H-benzo[d]imidazole-5-carboxamide] | 8.30 | significantly more potent | minimal tumor growth delay | 622.1 and 781.4 and 1128.3 | 1439.4 and 1501.7 and 1160.7 | 73.7 and 78.6 and 110.3 | 297.7 and 336.8 and 224 | 3.9 and 3.2 | 3.2 and 4.9 and 4.3 | 2652.5 and 2393.5 and 2412.7 | 2610.8 and 2133.6 and 2473.4 | 3185.3 and 2816.3 and 1634.8 | 94.6 and 93.6 and 73.9 | 16.9 and 16.6 and 10 | 44.5 and 31.8 and 36.5 | 3.2 | 1121.6 and 1025.3 and 696.2 | 397.7 and 294.7 and 305.9 | 3.2 | 560.1 and 398.8 and 560
2 | CCn1nc(C)cc1C(=O)Nc1nc2cc(C(N)=O)cc(OC)c2n1C/C=C/Cn1c(NC(=O)c2cc(C)nn2CC)nc2cc(C(N)=O)cc(OCCCNC)c21 [Compound 12a] | 7.68 | less potent than compound 1 and compound A |  |  |  |  |  |  |  |  |  |  |  |  |  |  |  |  |  | 
